Results on three molecules are retold here after patent US20230098667A1, “BENZODIAZEPINE DERIVATIVES, COMPOSITIONS, AND METHODS FOR TREATING COGNITIVE IMPAIRMENT” (priority 2019, published 2023).

“Also recorded” adds a separate entry of the source. Where two headings read alike, the source gives them in different places.

Data set [1] is classed as in vivo, Long Evans rats. The procedure:
(§1) Food and water were available ad libitum.
For plasma exposures, blood samples were centrifuged at 14000 rpm for 16 minutes. After centrifuging, 50 ul of supernatant (plasma) from each sample was added to 200 μl of acetonitrile plus 0.1% formic acid. […] Samples were sonicated for 5 minutes in an ultrasonic water bath, followed by centrifugation for 30 minutes, at 16000 RPM. 100 ul of supernatant was removed from each sample vial and placed in a new glass auto sample vial, followed by the addition of 300 μl of sterile water (pH 6.5).
Additional studies were conducted in aged Long-Evans rats in order to determine the exposures at the behaviorally relevant doses in the cognition studies. Exposure in young Long-Evans rats was also determined to bridge with the receptor occupancy studies that were conducted in young Long-Evans rats. Exposures in young and aged Long-Evans rats were relatively similar (Table 4, FIG. 4).

For a further data set, the system named is aged-impaired (AI) rats. In words: Radial Arm Maze (RAM) behavioral task, two-hour delay. It counts as in vivo, rat. Conditions: 3 mg/kg ip. As to the method: The effects of methyl 3,5-diphenylpyridazine-4-carboxylate on the in vivo spatial memory retention of aged-impaired (AI) rats were assessed in a Radial Arm Maze (RAM) behavioral task using vehicle control and four different dosage levels of methyl 3,5-diphenylpyridazine-4-carboxylate (0.1 mg/kg, 0.3 mg/kg, 1 mg/kg and 3 mg/kg, ip). RAM behavioral tasks were performed on eight AI rats. All five treatment conditions (vehicle and four dosage levels) were tested on all eight rats.
The RAM apparatus used consisted of eight equidistantly-spaced arms. An elevated maze arm (7 cm width×75 cm length) projected from each facet of an octagonal center platform (30 cm diameter, 51.5 cm height). Clear side walls on the arms were 10 cm high and were angled at […] to form a trough. A food well (4 cm diameter, 2 cm deep) was located at the distal end of each arm. Froot Loops™ (Kellogg Company) were used as rewards. Blocks constructed of Plexiglas™ (30 cm height×12 cm width) could be positioned to prevent entry to any arm. Numerous extra maze cues surrounding the apparatus were also provided.
The AI rats were initially subjected to a pre-training test (Chappell et al. Neuropharmacology 37: 481-487, 1998). […]

Another data set deals with T1, GABAA α5 receptor (Rattus norvegicus, UniProt P19969).
T1 construct: from tissue; host or cells: brain of living Long Evans rats; hippocampus and cerebellum dissected after i.v. dosing
The data set can be described thus: GABAA α5 receptor occupancy with Ro 15-4513 tracer. The data set is classed as in vivo, Long Evans rats.
Source text: as §1

The target of another data set is T2, α5-containing GABAA R (Homo sapiens, UniProt P18507+P31644).
T2 sequence (P31644 32-462): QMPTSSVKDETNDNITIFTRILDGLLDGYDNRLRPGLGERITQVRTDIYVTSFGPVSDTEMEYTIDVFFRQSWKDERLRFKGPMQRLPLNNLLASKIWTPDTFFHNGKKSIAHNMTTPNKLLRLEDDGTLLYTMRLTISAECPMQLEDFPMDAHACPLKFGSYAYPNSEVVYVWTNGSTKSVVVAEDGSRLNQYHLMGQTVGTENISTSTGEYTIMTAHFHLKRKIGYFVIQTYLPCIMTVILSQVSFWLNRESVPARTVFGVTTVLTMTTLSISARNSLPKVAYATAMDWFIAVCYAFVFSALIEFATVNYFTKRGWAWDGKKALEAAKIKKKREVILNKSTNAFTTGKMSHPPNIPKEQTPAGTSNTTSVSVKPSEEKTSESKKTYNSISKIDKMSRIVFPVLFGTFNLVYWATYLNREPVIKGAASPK
T2 sequence (P28472 26-473 partner): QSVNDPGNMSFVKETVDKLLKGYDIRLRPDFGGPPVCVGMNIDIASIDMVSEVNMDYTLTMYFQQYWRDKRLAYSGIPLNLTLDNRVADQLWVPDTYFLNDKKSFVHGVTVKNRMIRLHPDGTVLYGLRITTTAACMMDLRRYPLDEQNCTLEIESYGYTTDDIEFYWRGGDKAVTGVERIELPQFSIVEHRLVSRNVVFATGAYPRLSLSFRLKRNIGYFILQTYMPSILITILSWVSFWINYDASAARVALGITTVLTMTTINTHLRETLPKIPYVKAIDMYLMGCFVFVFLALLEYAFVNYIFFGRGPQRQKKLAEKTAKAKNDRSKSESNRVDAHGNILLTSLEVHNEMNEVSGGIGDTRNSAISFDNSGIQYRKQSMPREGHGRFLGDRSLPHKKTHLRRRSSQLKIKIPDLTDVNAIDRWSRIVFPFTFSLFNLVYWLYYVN
T2 sequence (P18507 40-467 limits assumed): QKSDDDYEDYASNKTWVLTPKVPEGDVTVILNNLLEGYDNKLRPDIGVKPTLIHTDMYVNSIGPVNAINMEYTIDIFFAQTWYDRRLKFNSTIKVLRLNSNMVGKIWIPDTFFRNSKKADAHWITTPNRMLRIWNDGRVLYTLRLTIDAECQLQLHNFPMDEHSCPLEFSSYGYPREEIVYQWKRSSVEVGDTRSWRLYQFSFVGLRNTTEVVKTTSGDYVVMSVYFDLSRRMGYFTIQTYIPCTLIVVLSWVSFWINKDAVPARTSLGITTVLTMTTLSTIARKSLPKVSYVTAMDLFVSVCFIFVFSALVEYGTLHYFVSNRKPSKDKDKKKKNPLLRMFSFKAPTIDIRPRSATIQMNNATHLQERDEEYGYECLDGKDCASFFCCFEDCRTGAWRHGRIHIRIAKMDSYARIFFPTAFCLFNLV
The note with it: cited from earlier work.

For data set [2], the target named is T3, GABAA receptors α5β3γ2 (GABA α5) (Homo sapiens, UniProt P18507+P31644).
T3 construct: membranes
T3 sequence (P31644 32-462): T2 sequence (P31644 32-462)
T3 sequence (P28472 26-473 partner): T2 sequence (P28472 26-473 partner)
T3 sequence (P18507 40-467 limits assumed): T2 sequence (P18507 40-467 limits assumed)
The data set can be described thus: Binding activity on GABAAR: inhibition of [3H]Ro15-1788 binding, membranes of Ltk cells. The note with it: α5β3γ2 Ltk cell membranes. The procedure: (§2) Tissue culture and Membrane Preparation: The binding was performed on Ltk cells stably expressing GABAA receptors: α1β1γ2, α2β3γ2, α3β3γ2 and α5β3γ2 (provided by Merck Co., NJ, USA). Cells were seeded in 100 mm culture plates in DMEM/F12 medium containing 10% serum and antibiotics in 5% CO2 and allowed to grow for 1-2 days. GABAAR expression was then induced by dexamethasone as follows: 0.5 μM for 1 day for α5 containing and 2 μM for 3 days for α1, α2 and α3 containing GABAARs. After induction, cells were collected by scraping into Dulbecco's Phosphate buffered saline (DPBS, pH 7.4, Invitrogen, Carlsbad, Calif., USA) and centrifuged at 150×g for 10 min. The pellet was washed twice by re-suspension and centrifugation. The cell pellets from at least 5 different preps were combined, suspended in the binding assay buffer (50 mM KH2PO4; 1 mM EDTA; 0.2 M KCl, pH 7.4) and membranes prepared by sonication (3-5 times, 30 sec) using Branson Sonifier 150 (G. Heinmann, Germany). Protein content was determined using BCA assay (Bio-Rad Labs, Reinach, Switzerland) with Bovine Serum Albumin (Sigma Aldrich, St. Louis, Mo., USA) as the standard. Aliquots were prepared and stored at −20° C. for further use in binding assays.
(§3) Ligand Binding: Saturation binding curves were obtained by incubating membranes with increasing concentrations (0.01-8 nM) of [^3H]Rol5-1788 (Flumazepil, 75-85 Ci/mmol, PerkinElmer, MA, USA), with nonspecific binding measured in the presence of 10 μM diazepam.
All binding assays were performed for 1 h at 4° C. in assay buffer. The total assay volume was 0.5 ml containing 0.2 mg/ml protein for α5 and 0.4 mg/ml for α1, α2, and α3 containing GABAAR membranes. Incubations were terminated by filtration through GF/B filters using a 24-Cell Harvestor (Brandel, Gaithersburg, Md., USA) followed by 3 washes with ice-cold assay buffer. Filters were transferred to scintillation vials, 5 ml scintillation liquid added, vortex-mixed and kept in dark. Next day, radioactivity was obtained using a scintillation counter (Beckman Coulter, Brea, Calif., USA). All assays were performed in triplicate.
Data Analyses: Saturation and inhibition curves were obtained using GraphPad Prism software (GraphPad Software, Inc., CA, USA).

The target of the next data set is T4, GABAA receptors (α5β2γ2) (Homo sapiens, UniProt P18507+P31644).
T4 construct: expressed in transfected cells
T4 sequence (P31644 32-462): T2 sequence (P31644 32-462)
T4 sequence (P47870 25-512 partner limits assumed): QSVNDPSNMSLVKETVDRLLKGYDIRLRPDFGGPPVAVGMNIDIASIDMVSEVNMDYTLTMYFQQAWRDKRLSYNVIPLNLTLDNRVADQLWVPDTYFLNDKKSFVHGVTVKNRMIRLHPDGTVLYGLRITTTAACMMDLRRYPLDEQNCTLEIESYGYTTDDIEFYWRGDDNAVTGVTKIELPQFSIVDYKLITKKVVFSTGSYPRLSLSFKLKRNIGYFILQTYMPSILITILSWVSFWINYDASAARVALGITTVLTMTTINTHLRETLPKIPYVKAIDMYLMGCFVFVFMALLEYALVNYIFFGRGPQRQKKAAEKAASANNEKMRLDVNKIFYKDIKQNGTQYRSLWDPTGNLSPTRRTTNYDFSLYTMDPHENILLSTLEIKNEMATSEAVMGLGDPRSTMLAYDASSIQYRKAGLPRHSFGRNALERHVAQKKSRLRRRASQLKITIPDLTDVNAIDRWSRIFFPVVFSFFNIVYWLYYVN
T4 sequence (P18507 40-467 limits assumed): T2 sequence (P18507 40-467 limits assumed)
The data set can be described thus: Positive allosteric modulator activity: potentiation of EC20 GABA current in oocytes. It counts as cell-based. Conditions: @ 100 nM. The procedure: On day 1, 1 ng/32 nL of GABAA α5β2γ2 cDNA was injected into one oocyte. Test starts on day 2. The cDNA injected to the oocytes was a mix of alpha, beta and gamma, their ratio is 1:1:10 (by weight) and the total weight of the mixed 3 subunits to be injected in one oocyte was 1 ng in 32 nl volume. The injected oocytes can also be tested on day 3. In such case, the cDNA amount injected to the oocytes should be reduced by 20%.
1). 8 oocytes were placed in 8 chambers of OpusXpress and superfused with Modified Barth's Saline (MBS) at 3 mL/min. Glass electrodes back-filled with 3M KCl (0.5-3 megaohms) were used. […] 2). […] 3).
1). New oocytes were used to run new test. 2). […] 3). […] Oocytes were washed with MBS for 5-10 min. 4). […] Itest was divided by IGABA to obtain potentiation (%).
1). Repeat the above steps 1), 2) and 3) in the control test. 2). […] Divide Itest by IGABA to obtain potentiation (%). 3). Discard all tested oocytes, new oocytes were used and the above steps 1) and 2) were repeated to test second concentration of the same compound. Each oocyte was used for only one concentration test for a single test compound. The steps were repeated for other test compounds.

Data set [3] has as its system GABA α5 versus GABA α1, GABA α2, or GABA α3. The data set can be described thus: Binding selectivity from [3H]Ro15-1788 binding on GABAAR subtypes. The procedure: as §2, with “The cell pellets from at least 5 different preps were combined, suspended in the binding assay buffer (50 mM KH2PO4; 1 mM EDTA; 0.2 M KCl, pH 7.4) and membranes prepared by sonication (3-5 times, 30 sec) using Branson Sonifier 150 (G. Heinmann, Germany).” left out, “Aliquots were prepared and stored at −20° C. for further use in binding assays.” left out
as §3
All binding assays were performed for 1 h at 4° C. in assay buffer. […] Next day, radioactivity was obtained using a scintillation counter (Beckman Coulter, Brea, Calif., USA). […]

T1 sequence (P19969 32-464 limits assumed): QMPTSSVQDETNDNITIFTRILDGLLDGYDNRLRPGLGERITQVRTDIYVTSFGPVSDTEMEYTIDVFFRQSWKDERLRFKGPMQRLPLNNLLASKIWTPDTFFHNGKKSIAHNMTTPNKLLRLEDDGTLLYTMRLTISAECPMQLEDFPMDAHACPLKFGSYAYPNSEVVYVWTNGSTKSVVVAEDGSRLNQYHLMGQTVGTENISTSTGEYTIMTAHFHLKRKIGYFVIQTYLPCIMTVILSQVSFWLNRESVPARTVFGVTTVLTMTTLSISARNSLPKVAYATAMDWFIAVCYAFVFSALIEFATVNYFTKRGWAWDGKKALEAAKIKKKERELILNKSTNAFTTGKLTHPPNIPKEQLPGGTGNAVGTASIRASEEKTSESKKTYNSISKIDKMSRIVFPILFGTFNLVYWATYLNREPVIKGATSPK

Consider `COC(=O)c1c(-c2ccccc2)cnnc1-c1ccccc1` [methyl 3,5-diphenylpyridazine-4-carboxylate], for which the “increase in hippocampal exposure” value in data set [1] (dose from 0.1 to 1 mg/kg, i.v.) is given as 12 fold. Further, in data set [1] (dose from 1 to 3 mg/kg, ip, young and aged rats), the “increase in exposure in hippocampus and plasma” value fell in the range of 4.5 to 6.6 fold. Further, in data set [1] (dose from 1 to 10 mg/kg, i.v.), the “increase in hippocampal exposure” value was roughly 5 fold and the “increase in plasma exposure” value is 12 fold. Also, in the data set on aged-impaired (AI) rats, the “average no. of errors ± SEM in retention test” value is 1.31±0.40 and the “memory performance relative to vehicle control” value is on record as “significantly improved memory performance”. In addition, the “effect on Ro 15-4513 binding in hippocampus and cerebellum” value at GABAA α5 receptor (0.01-10 mg/kg, i.v.) was “blocked the binding of Ro154513 in the hippocampus but did not affect binding of Ro15413 in the cerebellum; also recorded: dose-dependently reduced Ro 15-4513 binding in hippocampus, without affecting cerebellum levels of Ro 15-4513”. The “GABAA α5 receptors occupied in hippocampus” value on GABAA α5 receptor (at exposures behaviorally active in aged-impaired rats) is recorded as “about 32%”. In addition, at GABAA α5 receptor (exposure of 180 ng/g in hippocampus (1 mg/kg, i.v.)), the “receptor occupancy depending on method” value was 32-39%. For the same molecule, the “ED50 of receptor occupancy, ratio method” value at GABAA α5 receptor (i.v., ratio method) is listed as 1.8 mg/kg. Besides, the receptor occupancy at 10 mg/kg at GABAA α5 receptor (rat, iv, 10 mg/kg) was greater than 90%. Also, on α5-containing GABAA R, the “α5 in vitro efficacy (EC20)” value was “+27”.

In general, Ki refers to the dissociation constant of the complex between target and ligand, obtained from inhibition or displacement. Take `COCc1nnn2c1Cc1c(C#Cc3cnc(C)[nH]3)ncn1-c1ccc(Cl)cc1-2` [Compound 739]: the inhibitory constant (Ki) in data set [2] was less than 100 nM. The “GABA α5 functional potentiation” value on GABAA receptors (α5β2γ2) is greater than 50% @ 100 nM.

On to `COc1ncc(C#Cc2ncn3c2Cc2cnnn2-c2cc(Cl)ccc2-3)cc1C(F)(F)F` [Compound 733], for which, in data set [3], the “Binding selectivity for GABA α5 versus GABA α1, GABA α2, or GABA α3” value is >100-fold. Moreover, the Ki in data set [2] was less than 100 nM.
